In paper PMC7764601 (Molecules, 2020):
Like-named read-outs stand apart in the source and are kept apart here.

Experiments:
[1] = target: T1, µ receptor of the rat cerebral cortex (Rattus norvegicus, UniProt P33535); assay: Displacement of [3H-DHM] from µ receptor binding sites of rat cerebral cortex; details: read-out: Dihydromorphine [3H-DHM] Ki
T1 construct: from tissue; host or cells: rat cerebral cortex

mice [2] = details: cited from earlier work
mice [3] = tested on: mice; parameters: method as in PMID 11234340, PMID 12484538, PMID 15652370; details: cited from earlier work; for % Inh. of locomotor activity: series 1; for ED50, influence on the locomotor activity: imides described previously (series 1)
mice [4] = tested on: mice; parameters: method as in PMID 11234340, PMID 12484538, PMID 15652370; details: series 1, cited from earlier work
[5] = compounds obtained previously (series 1 and 2)

T1 sequence (P33535 whole entry): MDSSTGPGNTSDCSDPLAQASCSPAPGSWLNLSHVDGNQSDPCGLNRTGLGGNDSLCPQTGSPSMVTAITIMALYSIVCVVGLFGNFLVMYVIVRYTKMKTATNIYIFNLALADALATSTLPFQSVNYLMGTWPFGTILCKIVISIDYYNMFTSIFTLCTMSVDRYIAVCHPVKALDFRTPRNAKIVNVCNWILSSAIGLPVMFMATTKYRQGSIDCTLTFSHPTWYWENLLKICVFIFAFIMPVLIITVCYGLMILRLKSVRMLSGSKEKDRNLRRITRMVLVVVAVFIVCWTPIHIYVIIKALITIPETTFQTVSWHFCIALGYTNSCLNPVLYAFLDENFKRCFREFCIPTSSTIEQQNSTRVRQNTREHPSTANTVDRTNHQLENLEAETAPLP

SMILES	Ki [1]	ED50, writhing test (mice [2]; [5])	% Inh. of locomotor activity (mice [3]; dose 12.5 mg/kg)	% Inh. of locomotor activity (mice [3]; dose 25 mg/kg)	% Inh. of locomotor activity (mice [3]; dose 50 mg/kg)	ED50, influence on the locomotor activity (mice [3])	Thiopental Anesthesia % Prolong. (mice [4]; dose 12.5 mg/kg)	Thiopental Anesthesia % Prolong. (mice [4]; dose 25 mg/kg)	Thiopental Anesthesia % Prolong. (mice [4]; dose 50 mg/kg)	ED50, writhing test (mice [2]; imides described previously)
COc1ccccc1N1CCN(CCCN2C(=O)c3cc(C)nc(OC)c3C2=O)CC1 [Compound 1I]	30.8 ± 47.8 µM	0.67 mg/kg	53.91%	72.77%	76.69%	11.8 mg/kg	123.3%	140.3%	207.2%	
COc1nc(C)cc2c1C(=O)N(CCCN1CCN(c3cccc(Cl)c3)CC1)C2=O [Compound 1J]	> 100 µM									8.8 mg/kg
COc1nc(C)cc2c1C(=O)N(CN1CCc3ccccc3C1)C2=O [Compound 1M]	13.8 ± 12.2 µM	12.7 mg/kg		47.25%	59.21%	29.5 mg/kg		146.6%	195.1%	
CCOc1nc(C)cc2c1C(=O)N(CCCN1CCN(c3cccc(Cl)c3)CC1)C2=O [Compound 2J]	> 100 µM									8.7 mg/kg
